The values below come from BindingDB's records for doi:10.1016/s0960-894x(99)00210-3 (Tartu University, 1999).

A short description of this experiment: Inhibitory activity against Protein kinase C beta isoform (PKC) from pig spleen.

With `N=C(N)NCCC[C@H](NC(=O)[C@H](CCCNC(=N)N)NC(=O)[C@H](CCCNC(=N)N)NC(=O)[C@H](CCCNC(=N)N)NC(=O)[C@H](CCCNC(=N)N)NC(=O)[C@H](CCCNC(=N)N)NC(=O)CCNC(=O)[C@H]1OC(n2cnc3c(N)ncnc32)[C@H](O)[C@@H]1O)C(=O)O` (stereo partly specified), half-maximal inhibition (IC50) was put at 3 µM.

As to `N=C(N)NCCC[C@H](NC(=O)[C@H](CCCNC(=N)N)NC(=O)[C@H](CCCNC(=N)N)NC(=O)[C@H](CCCNC(=N)N)NC(=O)[C@H](CCCNC(=N)N)NC(=O)[C@H](CCCNC(=N)N)NC(=O)CCCNC(=O)[C@H]1OC(n2cnc3c(N)ncnc32)[C@H](O)[C@@H]1O)C(=O)O` (stereo partly specified), 1.5 µM corresponded to half-maximal inhibition (IC50).

As to `C[C@H](NC(=O)C[C@H](NC(=O)C[C@H](NC(=O)[C@H]1O[C@@H](n2cnc3c(N)ncnc32)[C@H](O)[C@@H]1O)C(=O)O)C(=O)O)C(=O)N[C@@H](CCCNC(=N)N)C(=O)N[C@@H](CCCNC(=N)N)C(=O)N[C@@H](CCCNC(=N)N)C(=O)N[C@@H](CCCNC(=N)N)C(=O)N[C@@H](CCCNC(=N)N)C(=O)N[C@@H](CCCNC(=N)N)C(=O)O`, the IC50 (commonly the midpoint of a concentration-inhibition curve) is 27 µM.

`N=C(N)NCCC[C@H](NC(=O)[C@H](CCCNC(=N)N)NC(=O)[C@H](CCCNC(=N)N)NC(=O)[C@H](CCCNC(=N)N)NC(=O)[C@H](CCCNC(=N)N)NC(=O)[C@H](CCCNC(=N)N)NC(=O)CNC(=O)[C@H]1OC(n2cnc3c(N)ncnc32)[C@H](O)[C@@H]1O)C(=O)O` (stereo partly specified): half-maximal inhibition (IC50) was put at 10 µM.

The compound `C[C@H](NC(=O)CCNC(=O)CCNC(=O)[C@H]1OC(n2cnc3c(N)ncnc32)[C@H](O)[C@@H]1O)C(=O)N[C@@H](CCCNC(=N)N)C(=O)N[C@@H](CCCNC(=N)N)C(=O)N[C@@H](CCCNC(=N)N)C(=O)N[C@@H](CCCNC(=N)N)C(=O)N[C@@H](CCCNC(=N)N)C(=O)N[C@@H](CCCNC(=N)N)C(=O)O` (stereo partly specified) returned an IC50 of 2.8 µM.

With `CC(=O)NCCCCCC(=O)N[C@@H](CCCN=C(N)N)C(=O)N[C@@H](CCCNC(=N)N)C(=O)N[C@@H](CCCNC(=N)N)C(=O)N[C@@H](CCCNC(=N)N)C(=O)N[C@@H](CCCNC(=N)N)C(=O)N[C@@H](CCCN=C(N)N)C(=O)O` [(R)-2-{(R)-2-[2-((R)-2-{(R)-2-[2-(6-Acetylamino-hexanoylamino)-5-guanidino-pentanoylamino]-5-guanidino-pentanoylamino}-5-guanidino-pentanoylamino)-5-guanidino-pentanoylamino]-5-guanidino-pentanoylamino}-5-guanidino-pentanoic acid], the IC50 is more than 100 µM.
